Test results taken from patent US20230148214A1, “INDAZOLES AND AZAINDAZOLES AS LRRK2 INHIBITORS” (ESCAPE Bio, Inc., priority 2020, published 2023).

Legend:
LRRK2 G2019S = biological target: T1, LRRK2 G2019S (Homo sapiens, UniProt Q5S007, G2019S); experiment: LRRK2 Kinase Activity Assay (LanthaScreen TR-FRET), G2019S; format: biochemical; conditions: recombinant G2019S-LRRK2, 25 μM ATP, 400 nM LRRKtide, 60 min; class symbols
T1 construct: purchased Life Technologies PV4881
Procedure, shortened: (§1)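 IC50 fitted to the compound-dependent loss of TR-FRET signal. Each kinase form, wild type or G2019S, phosphorylated the fluorescein-tagged ERM-derived LRRKtide in the presence of ATP and compound dilutions over 60 min at room temperature; quench contained 10 mM EDTA and 2 nM anti-pERM antibody (final).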

LRRK2 WT = biological target: T2, LRRK2 WT (Homo sapiens, UniProt Q5S007); experiment: LRRK2 Kinase Activity Assay (LanthaScreen TR-FRET), wild type; format: biochemical; conditions: recombinant wild type LRRK2, 25 μM ATP, 400 nM LRRKtide, 60 min
T2 construct: purchased Life Technologies PR8604B
Procedure, shortened: as §1

T2 sequence (Q5S007 whole entry): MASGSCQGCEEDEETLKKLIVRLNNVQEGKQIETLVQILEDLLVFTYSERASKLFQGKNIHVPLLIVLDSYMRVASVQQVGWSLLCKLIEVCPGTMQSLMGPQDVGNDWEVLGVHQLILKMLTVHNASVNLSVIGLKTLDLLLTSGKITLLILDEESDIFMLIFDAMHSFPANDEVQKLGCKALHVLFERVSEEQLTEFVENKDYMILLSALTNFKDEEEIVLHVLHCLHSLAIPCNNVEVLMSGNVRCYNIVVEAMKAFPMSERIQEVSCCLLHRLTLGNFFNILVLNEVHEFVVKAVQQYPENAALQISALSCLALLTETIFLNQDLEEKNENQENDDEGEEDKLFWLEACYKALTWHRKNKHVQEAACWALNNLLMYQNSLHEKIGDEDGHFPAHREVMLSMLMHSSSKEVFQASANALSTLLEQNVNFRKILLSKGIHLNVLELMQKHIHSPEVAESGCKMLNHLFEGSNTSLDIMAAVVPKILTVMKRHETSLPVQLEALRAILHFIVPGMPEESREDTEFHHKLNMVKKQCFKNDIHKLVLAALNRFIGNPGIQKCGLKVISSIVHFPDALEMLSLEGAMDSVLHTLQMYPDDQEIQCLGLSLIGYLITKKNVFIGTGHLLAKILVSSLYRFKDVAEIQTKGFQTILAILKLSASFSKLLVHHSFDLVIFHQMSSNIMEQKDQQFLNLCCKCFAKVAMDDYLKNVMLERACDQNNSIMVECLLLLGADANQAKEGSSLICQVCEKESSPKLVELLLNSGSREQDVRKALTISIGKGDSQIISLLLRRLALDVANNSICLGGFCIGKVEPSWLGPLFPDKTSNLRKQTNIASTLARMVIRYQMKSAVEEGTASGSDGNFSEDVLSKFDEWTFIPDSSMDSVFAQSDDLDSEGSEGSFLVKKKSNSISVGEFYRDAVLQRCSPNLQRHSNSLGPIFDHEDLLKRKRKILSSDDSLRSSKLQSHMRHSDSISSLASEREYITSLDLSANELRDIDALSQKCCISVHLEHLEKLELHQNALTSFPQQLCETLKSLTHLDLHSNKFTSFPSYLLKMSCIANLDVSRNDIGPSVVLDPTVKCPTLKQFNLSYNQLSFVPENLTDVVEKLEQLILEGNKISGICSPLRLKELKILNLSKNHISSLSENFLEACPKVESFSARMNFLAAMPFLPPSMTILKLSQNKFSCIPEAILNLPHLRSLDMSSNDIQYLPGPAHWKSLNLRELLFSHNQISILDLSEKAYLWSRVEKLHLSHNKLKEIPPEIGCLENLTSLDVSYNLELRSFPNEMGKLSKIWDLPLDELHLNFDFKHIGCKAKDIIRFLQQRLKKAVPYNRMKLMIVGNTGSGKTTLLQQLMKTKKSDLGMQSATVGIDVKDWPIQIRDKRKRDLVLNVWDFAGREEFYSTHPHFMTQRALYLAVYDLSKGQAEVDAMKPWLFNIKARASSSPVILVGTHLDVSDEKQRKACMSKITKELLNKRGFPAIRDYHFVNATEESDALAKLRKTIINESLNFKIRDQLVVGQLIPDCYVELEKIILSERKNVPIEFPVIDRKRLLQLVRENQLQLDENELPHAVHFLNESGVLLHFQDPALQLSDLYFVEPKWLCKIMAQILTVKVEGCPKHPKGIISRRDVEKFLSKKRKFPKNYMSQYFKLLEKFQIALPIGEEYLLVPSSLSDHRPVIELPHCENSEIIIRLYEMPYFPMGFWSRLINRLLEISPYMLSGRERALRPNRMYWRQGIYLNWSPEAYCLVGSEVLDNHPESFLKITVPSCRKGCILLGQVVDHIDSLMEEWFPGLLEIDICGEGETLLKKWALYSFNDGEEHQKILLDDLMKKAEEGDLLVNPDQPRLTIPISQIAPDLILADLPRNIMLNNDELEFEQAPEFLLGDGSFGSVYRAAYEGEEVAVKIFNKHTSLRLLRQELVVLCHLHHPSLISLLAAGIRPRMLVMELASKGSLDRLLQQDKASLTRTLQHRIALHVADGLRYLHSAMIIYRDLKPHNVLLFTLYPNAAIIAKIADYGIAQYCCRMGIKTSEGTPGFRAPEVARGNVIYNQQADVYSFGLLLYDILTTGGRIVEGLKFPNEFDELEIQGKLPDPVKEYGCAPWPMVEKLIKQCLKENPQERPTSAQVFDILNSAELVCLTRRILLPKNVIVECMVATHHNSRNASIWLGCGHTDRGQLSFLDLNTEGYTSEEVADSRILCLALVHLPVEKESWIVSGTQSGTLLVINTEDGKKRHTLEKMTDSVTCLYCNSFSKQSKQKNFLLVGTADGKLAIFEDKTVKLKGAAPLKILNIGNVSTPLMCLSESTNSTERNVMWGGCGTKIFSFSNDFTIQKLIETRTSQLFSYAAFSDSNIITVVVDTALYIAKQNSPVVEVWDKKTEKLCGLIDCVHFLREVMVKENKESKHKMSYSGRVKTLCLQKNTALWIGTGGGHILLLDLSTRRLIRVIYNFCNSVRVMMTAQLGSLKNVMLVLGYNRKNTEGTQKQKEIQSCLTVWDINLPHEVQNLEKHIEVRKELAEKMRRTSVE
T1 sequence (Q5S007 whole entry G2019S): as the sequence (Q5S007 whole entry) above, with G2019S counted along it

Structure (SMILES): N#Cc1ccc2c(c1)CC(F)(F)[C@@H]2Nc1ccc2[nH]nc(-c3cnco3)c2c1 (single isomer, unassigned) [Example 42, enantiomer 1, 2,2-Difluoro-1-((3-(oxazol-5-yl)-1H-indazol-5-yl)amino)-2,3-dihydro-1H-indene-5-carbonitrile]
- IC50 (LRRK2 G2019S): < 100 nM
- IC50 (LRRK2 WT; class symbols): < 100 nM

Structure (SMILES): Cc1n[nH]c2ccc(N[C@H]3CCCc4cc(C#N)ccc43)cc12 (single isomer, unassigned) [Example 43, enantiomer 1, 5-((3-Methyl-1H-indazol-5-yl)amino)-5,6,7,8-tetrahydronaphthalene-2-carbonitrile]
- IC50 (LRRK2 G2019S): < 100 nM
- IC50 (LRRK2 WT; class symbols): 100 to 1000 nM

Structure (SMILES): Cc1n[nH]c2ccc(N[C@H]3CCCc4cc(C#N)ccc43)cc12 (single isomer, unassigned) [Example 43, enantiomer 2, 5-((3-Methyl-1H-indazol-5-yl)amino)-5,6,7,8-tetrahydronaphthalene-2-carbonitrile]
- IC50 (LRRK2 G2019S): 100 to 1000 nM
- IC50 (LRRK2 WT; class symbols): 1000 to 10000 nM

Structure (SMILES): N#Cc1ccc2c(c1)CCC[C@@H]2Nc1ccc2[nH]nc(-c3cncs3)c2c1 (single isomer, unassigned) [Example 44, 5-((3-(Thiazol-5-yl)-1H-indazol-5-yl)amino)-5,6,7,8-tetrahydronaphthalene-2-carbonitrile]
- IC50 (LRRK2 G2019S): < 100 nM
- IC50 (LRRK2 WT; class symbols): < 100 nM

Structure (SMILES): N#Cc1ccc2c(c1)CCC[C@@H]2Nc1ccc2[nH]nc(C3CCCCC3)c2c1 (single isomer, unassigned) [Example 45, 5-((3-Cyclohexyl-1H-indazol-5-yl)amino)-5,6,7,8-tetrahydronaphthalene-2-carbonitrile]
- IC50 (LRRK2 G2019S): 1000 to 10000 nM
- IC50 (LRRK2 WT; numeric bound): > 10000 nM

Structure (SMILES): Cn1cccc(-c2n[nH]c3ccc(N[C@H]4CCCc5cc(C#N)ccc54)cc23)c1=O (single isomer, unassigned) [Example 46, 5-((3-(1-Methyl-2-oxo-1,2-dihydropyridin-3-yl)-1H-indazol-5-yl)amino)-5,6,7,8-tetrahydronaphthalene-2-carbonitrile]
- IC50 (LRRK2 G2019S): 100 to 1000 nM
- IC50 (LRRK2 WT; numeric bound): > 10000 nM

Structure (SMILES): N#Cc1nc2c(s1)[C@@H](Nc1ccc3[nH]nc(-c4cnco4)c3c1)CCC2 (single isomer, unassigned) [Example 47, enantiomer 1, 7-((3-(Oxazol-5-yl)-1H-indazol-5-yl)amino)-4,5,6,7-tetrahydrobenzo[d]thiazole-2-carbonitrile]
- IC50 (LRRK2 G2019S): 100 to 1000 nM
- IC50 (LRRK2 WT; class symbols): 100 to 1000 nM

Structure (SMILES): N#Cc1nc2c(s1)[C@@H](Nc1ccc3[nH]nc(-c4cnco4)c3c1)CCC2 (single isomer, unassigned) [Example 47, enantiomer 2, 7-((3-(Oxazol-5-yl)-1H-indazol-5-yl)amino)-4,5,6,7-tetrahydrobenzo[d]thiazole-2-carbonitrile]
- IC50 (LRRK2 G2019S): < 100 nM
- IC50 (LRRK2 WT; class symbols): < 100 nM

Structure (SMILES): N#Cc1cnc2c(c1)C1CC1[C@@H]2Nc1ccc2[nH]nc(-c3cnco3)c2c1 (single isomer, unassigned) [Example 48, enantiomer 1, 6-((3-(Oxazol-5-yl)-1H-indazol-5-yl)amino)-4b,5,5a,6-tetrahydrocyclopropa[3,4]cyclopenta[1,2-b]pyridine-3-carbonitrile]
- IC50 (LRRK2 G2019S): < 100 nM
- IC50 (LRRK2 WT; class symbols): < 100 nM

Structure (SMILES): N#Cc1cnc2c(c1)CCC[C@@H]2Nc1ccc2[nH]nc(-c3cnn(C(F)F)c3)c2c1 (single isomer, unassigned) [Example 49, enantiomer 1, 8-((3-(1-(Difluoromethyl)-1H-pyrazol-4-yl)-1H-indazol-5-yl)amino)-5,6,7,8-tetrahydroquinoline-3-carbonitrile]
- IC50 (LRRK2 G2019S): < 100 nM
- IC50 (LRRK2 WT; class symbols): < 100 nM

Structure (SMILES): N#Cc1cnc2c(c1)CCC[C@@H]2Nc1ccc2[nH]nc(-c3cnn(C(F)F)c3)c2c1 (single isomer, unassigned) [Example 49, enantiomer 2, 8-((3-(1-(Difluoromethyl)-1H-pyrazol-4-yl)-1H-indazol-5-yl)amino)-5,6,7,8-tetrahydroquinoline-3-carbonitrile]
- IC50 (LRRK2 G2019S): < 100 nM
- IC50 (LRRK2 WT; class symbols): 100 to 1000 nM

Structure (SMILES): Cc1c(C#N)ccc2c1CC[C@@H]2Oc1ccc2[nH]nc(-c3cnn(C(F)F)c3)c2c1 (single isomer, unassigned) [Example 50, enantiomer 1, 1-((3-(1-(Difluoromethyl)-1H-pyrazol-4-yl)-1H-indazol-5-yl)oxy)-4-methyl-2,3-dihydro-1H-indene-5-carbonitrile]
- IC50 (LRRK2 G2019S): < 100 nM
- IC50 (LRRK2 WT; class symbols): < 100 nM

Structure (SMILES): Cc1c(C#N)ccc2c1CC[C@@H]2Oc1ccc2[nH]nc(-c3cnn(C(F)F)c3)c2c1 (single isomer, unassigned) [Example 50, enantiomer 2, 1-((3-(1-(Difluoromethyl)-1H-pyrazol-4-yl)-1H-indazol-5-yl)oxy)-4-methyl-2,3-dihydro-1H-indene-5-carbonitrile]
- IC50 (LRRK2 G2019S): 100 to 1000 nM
- IC50 (LRRK2 WT; class symbols): < 100 nM

Structure (SMILES): N#Cc1ccc2c(c1F)CC[C@@H]2Oc1ccc2[nH]nc(-c3cnn(C(F)F)c3)c2c1 (single isomer, unassigned) [Example 51, enantiomer 1, 1-((3-(1-(Difluoromethyl)-1H-pyrazol-4-yl)-1H-indazol-5-yl)oxy)-4-fluoro-2,3-dihydro-1H-indene-5-carbonitrile]
- IC50 (LRRK2 G2019S): < 100 nM
- IC50 (LRRK2 WT; class symbols): < 100 nM

Structure (SMILES): Cc1c(C#N)ccc2c1CC[C@@H]2Nc1ccc2[nH]nc(-c3cnn(C(F)F)c3)c2c1 (single isomer, unassigned) [Example 52, enantiomer 1, 1-((3-(1-(Difluoromethyl)-1H-pyrazol-4-yl)-1H-indazol-5-yl)amino)-4-methyl-2,3-dihydro-1H-indene-5-carbonitrile]
- IC50 (LRRK2 G2019S): < 100 nM
- IC50 (LRRK2 WT; class symbols): < 100 nM

Structure (SMILES): N#Cc1ccc2c(c1F)CC[C@H]2Nc1ccc2[nH]nc(-c3cnn(C(F)F)c3)c2c1 (single isomer, unassigned) [Example 53, enantiomer 1, 1-((3-(1-(Difluoromethyl)-1H-pyrazol-4-yl)-1H-indazol-5-yl)amino)-4-fluoro-2,3-dihydro-1H-indene-5-carbonitrile]
- IC50 (LRRK2 G2019S): < 100 nM
- IC50 (LRRK2 WT; class symbols): < 100 nM

Structure (SMILES): N#Cc1ccc2c(c1F)CC[C@H]2Nc1ccc2[nH]nc(-c3cnn(C(F)F)c3)c2c1 (single isomer, unassigned) [Example 53, enantiomer 2, 1-((3-(1-(Difluoromethyl)-1H-pyrazol-4-yl)-1H-indazol-5-yl)amino)-4-fluoro-2,3-dihydro-1H-indene-5-carbonitrile]
- IC50 (LRRK2 G2019S): < 100 nM
- IC50 (LRRK2 WT; class symbols): 100 to 1000 nM

Structure (SMILES): N#Cc1ccc2c(c1)CCC[C@@H]2Nc1ccc2[nH]nc(C3=CCCCC3)c2c1 (single isomer, unassigned) [Example 54, 5-((3-(Cyclohex-1-en-1-yl)-1H-indazol-5-yl)amino)-5,6,7,8-tetrahydronaphthalene-2-carbonitrile]
- IC50 (LRRK2 G2019S): 100 to 1000 nM
- IC50 (LRRK2 WT; class symbols): 1000 to 10000 nM

Structure (SMILES): N#Cc1ccc2c(c1)CCC[C@@H]2Nc1ccc2[nH]nc(-c3ccc(C(=O)O)cc3)c2c1 (single isomer, unassigned) [Example 55, 4-(5-((6-Cyano-1,2,3,4-tetrahydronaphthalen-1-yl)amino)-1H-indazol-3-yl)benzoic acid]
- IC50 (LRRK2 G2019S): < 100 nM
- IC50 (LRRK2 WT; class symbols): < 100 nM

Structure (SMILES): Cn1cc2ccc(-c3n[nH]c4ccc(N[C@H]5CCCc6cc(C#N)ccc65)cc34)cc2n1 (single isomer, unassigned) [Example 56, 5-((2′-Methyl-1H,2′H-[3,6′-biindazol]-5-yl)amino)-5,6,7,8-tetrahydronaphthalene-2-carbonitrile]
- IC50 (LRRK2 G2019S): 100 to 1000 nM
- IC50 (LRRK2 WT; class symbols): 1000 to 10000 nM

Structure (SMILES): CS(=O)(=O)c1cccc(-c2n[nH]c3ccc(N[C@H]4CCCc5cc(C#N)ccc54)cc23)c1 (single isomer, unassigned) [Example 57, 5-((3-(3-(Methylsulfonyl)phenyl)-1H-indazol-5-yl)amino)-5,6,7,8-tetrahydronaphthalene-2-carbonitrile]
- IC50 (LRRK2 G2019S): < 100 nM
- IC50 (LRRK2 WT; class symbols): < 100 nM

Structure (SMILES): COc1cc(OC)cc(-c2n[nH]c3ccc(N[C@H]4CCCc5cc(C#N)ccc54)cc23)c1 (single isomer, unassigned) [Example 58, 5-((3-(3,5-Dimethoxyphenyl)-1H-indazol-5-yl)amino)-5,6,7,8-tetrahydronaphthalene-2-carbonitrile]
- IC50 (LRRK2 G2019S): < 100 nM
- IC50 (LRRK2 WT; class symbols): 100 to 1000 nM

Structure (SMILES): Cc1ncc(-c2n[nH]c3ccc(N[C@H]4CCCc5cc(C#N)ccc54)cc23)o1 (single isomer, unassigned) [Example 60, 5-((3-(2-Methyloxazol-5-yl)-1H-indazol-5-yl)amino)-5,6,7,8-tetrahydronaphthalene-2-carbonitrile]
- IC50 (LRRK2 G2019S): < 100 nM
- IC50 (LRRK2 WT; class symbols): < 100 nM

Structure (SMILES): N#Cc1ccc2c(c1)CCC[C@@H]2Nc1ccc2[nH]nc(-c3ccc4cc[nH]c4c3)c2c1 (single isomer, unassigned) [Example 61, 5-((3-(1H-Indol-6-yl)-1H-indazol-5-yl)amino)-5,6,7,8-tetrahydronaphthalene-2-carbonitrile]
- IC50 (LRRK2 G2019S): < 100 nM
- IC50 (LRRK2 WT; class symbols): 100 to 1000 nM

Structure (SMILES): Cn1cc(-c2n[nH]c3ccc(N[C@H]4CCCc5cc(C#N)ccc54)cc23)ccc1=O (single isomer, unassigned) [Example 62, 5-((3-(1-Methyl-6-oxo-1,6-dihydropyridin-3-yl)-1H-indazol-5-yl)amino)-5,6,7,8-tetrahydronaphthalene-2-carbonitrile]
- IC50 (LRRK2 G2019S): < 100 nM
- IC50 (LRRK2 WT; class symbols): < 100 nM

Structure (SMILES): N#Cc1ccc(-c2n[nH]c3ccc(N[C@H]4CCCc5cc(C#N)ccc54)cc23)cc1 (single isomer, unassigned) [Example 63, 5-((3-(4-Cyanophenyl)-1H-indazol-5-yl)amino)-5,6,7,8-tetrahydronaphthalene-2-carbonitrile]
- IC50 (LRRK2 G2019S): < 100 nM
- IC50 (LRRK2 WT; class symbols): 100 to 1000 nM

Structure (SMILES): N#Cc1ccc2c(c1)CCC[C@@H]2Nc1ccc2[nH]nc(C3=CCCC3)c2c1 (single isomer, unassigned) [Example 65, 5-((3-(Cyclopent-1-en-1-yl)-1H-indazol-5-yl)amino)-5,6,7,8-tetrahydronaphthalene-2-carbonitrile]
- IC50 (LRRK2 G2019S): 100 to 1000 nM
- IC50 (LRRK2 WT; class symbols): 1000 to 10000 nM
